Columns and labels:
Format in all cases: functional
EKVX = experiment: Antiproliferative activity against human EKVX cells by SRB assay
U-251 = experiment: Antiproliferative activity against human U251 cells assessed as cell growth at 5 uM by SRB assay; details: read-out: Activity
RXF 393 = experiment: Antiproliferative activity against human RXF393 cells assessed as cell growth at 50 uM by SRB assay; details: read-out: Activity
Malme-3M [1] = experiment: Antiproliferative activity against human MALME-3M cells assessed as cell growth at 50 uM by SRB assay; details: read-out: Activity
OVCAR-3 = experiment: Antiproliferative activity against human OVCAR-3 cells by SRB assay
Malme-3M [2] = experiment: Antiproliferative activity against human MALME-3M cells assessed as cell growth at 500 uM by SRB assay; details: read-out: Activity
KM12 [3] = experiment: Antiproliferative activity against human KM12 cells assessed as cell growth at 5 uM by SRB assay; details: read-out: Activity
HCC 2998 = experiment: Antiproliferative activity against human HCC2998 cells assessed as cell growth at 0.5 uM by SRB assay; details: read-out: Activity
SF-295 = experiment: Antiproliferative activity against human SF295 cells assessed as cell growth at 5 uM by SRB assay; details: read-out: Activity
NCI/ADR-RES = experiment: Antiproliferative activity against human NCI/ADR-RES cells assessed as cell growth at 0.5 uM by SRB assay; details: read-out: Activity
K562 = experiment: Antiproliferative activity against human K562 cells assessed as cell growth at 5 uM by SRB assay; details: read-out: Activity
A498 = experiment: Antiproliferative activity against human A498 cells assessed as cell growth at 500 uM by SRB assay; details: read-out: Activity
UO-31 [4] = experiment: Antiproliferative activity against human UO31 cells assessed as cell growth at 50 uM by SRB assay; details: read-out: Activity
UO-31 [5] = experiment: Antiproliferative activity against human UO31 cells assessed as cell growth at 5 mM by SRB assay; details: read-out: Activity
IGROV-1 = experiment: Antiproliferative activity against human IGROV1 cells assessed as cell growth at 5 uM by SRB assay; details: read-out: Activity
KM12 [6] = experiment: Antiproliferative activity against human KM12 cells assessed as cell growth at 500 uM by SRB assay; details: read-out: Activity
NCI-H226 = experiment: Antiproliferative activity against human NCI-H226 cells assessed as cell growth at 5 uM by SRB assay; details: read-out: Activity
[7] = read-out: LC50 (the source's name)
[8] = read-out: pLC50 (the source's name) (converted)

In the case of `O=C(/C=C/c1ccc(O)c(O)c1)OCCc1ccc(O)c(O)c1`, the GI50 (EKVX; read-out: GI50) is reported as 14.9 µM, the CC50 (EKVX; [7]) is reported as over 50 µM and the TGI (EKVX; read-out: TGI) is reported as over 50 µM. The GI50 (EKVX; read-out: pGI50 (converted)) was 14.8 µM, the CC50 (EKVX; [8]) was over 50.1 µM and the TGI (EKVX; read-out: pTGI) was over 50.1 µM. It also gave a growth at 5 µM (U-251) of 97%, a growth at 50 µM (RXF 393) of 135% and a growth at 50 µM (Malme-3M [1]) of 102%. For the same compound, the GI50 (OVCAR-3; read-out: GI50) was 5.17 µM, the CC50 (OVCAR-3; [7]) was over 50 µM and the TGI (OVCAR-3; read-out: TGI) was over 50 µM. The GI50 (OVCAR-3; read-out: pGI50 (converted)) was 5.13 µM, the CC50 (OVCAR-3; [8]) was over 50.1 µM and the TGI (OVCAR-3; read-out: pTGI) was over 50.1 µM. The growth at 500 µM (Malme-3M [2]) was 74%, the growth at 5 µM (KM12 [3]) was 95% and the growth at 0.5 µM (HCC 2998) was 93%. The growth at 5 µM (SF-295) was 89%, the growth at 0.5 µM (NCI/ADR-RES) was 97% and the growth at 5 µM (K562) was 95%. The growth at 500 µM (A498) was 68%, the growth at 50 µM (UO-31 [4]) was 82% and the growth at 5000 µM (UO-31 [5]) was -14%. For the same compound, the growth at 5 µM (IGROV-1) was 102%, the growth at 500 µM (KM12 [6]) was 59% and the growth at 5 µM (NCI-H226) was 99%.
